Source: US20260109721A1, “IONIZABLE CATIONIC LIPIDS INCORPORATING SILICON: SYNTHESIS AND LNP FORMULATION” (priority 2023, published 2026)
Like-named read-outs stand apart in the source and are kept apart here.

Key:
[1] = Encapsulation efficiency of loaded LNPs, RiboGreen RNA assay (Method A); type: physicochemical; details: encapsulation efficiency of mRNA-loaded LNP, Method A, RiboGreen
Experimental: (§1) The synthesized lipids were tested in term of in vitro transfection efficacy and toxicity on HeLa cells. In order to perform the mentioned biological tests, appropriate LNPs had to be formulated from the synthesized lipids. The formulation technique was different in Method A and B. The particle size, polydispersity index (PDI) and zeta potential of resulting LNPs were determined by means of Dynamic Light Scattering technique (DLS). Prior to biological testing the encapsulation efficiency (EE) of the loaded LNPs was determined by using RiboGreen RNA assay. In case of Method A Luc mRNA while in case of Method B GFP mRNA was transfected into the cells. In parallel with the transfection experiments, toxicity of the investigated LNPs was determined, in case of Method A resazurin assay while in case of Method B MTT assay was used. Additionally, the toxicity of the lipids was investigated on HepG2 cells and IC50 values were determined.
• 1. Preparation of sample stock solutions: In the top row of the 96-well plate (Row A in the plate), add 297 μL of TE buffer pH 7.4 (see Table 1) to a single well for each sample plus a single well for a PBS blank using a multichannel pipette.
• 2. Add 3 μL of sample (at 0.5 mg/ml) to these wells for a final volume of 300 μL. Add 3 μL of PBS to the blank well. Pipette to mix. This is your stock solution for each sample. The final RNA concentration of these stock solutions should be approximately 4-7 μg/mL. • 3. mRNA-LNP sample setup: • a. Add 50 μL of TE buffer pH 7.5 to the two wells directly below each sample (Rows B and C in the plate). • b. Add 50 μL of sample stock solution from Row A into the wells in Rows B and C (this assay is run in duplicate. All liquid handling should be done using a multichannel pipette). • c. Add 50 μL of Triton buffer to the wells in Rows D and E (in the plate) below each sample. • d. Add 50 μL of sample stock solution from Row A into the wells in Rows D and E. • 4. RiboGreen RNA standard curve setup: Dilute the RNA standard to produce an RNA stock at a final concentration of 20 μg/mL in TE buffer pH 7.4. The final volume should be 150 μL. Set up a standard curve (in duplicate) as using the RNA stock (20 μg/mL siRNA), TE buffer pH 7.5, and Triton X-100 buffer according the Table 2 and Table 3 below.
• 5. Once samples and standard curve are plated, incubate the plate at 37° C. for 10 min to lyse mRNA-LNP in the presence of Triton X-100 buffer. • 6. Meanwhile, prepare RiboGreen Solution: Sum the total number of sample wells and standard curve wells. Add three to this number, and multiply the total by 100. This is the total volume, in μL, of RiboGreen Solution needed for this assay. In a 15 mL RNAse-free Falcon tube, dilute the RiboGreen Reagent 1:100 into TE buffer pH 7.5 to the total volume calculated. • 7. Addition of RiboGreen Solution and sample readings: Remove a 96-well plate from 37° C. incubator; let it cool to room temperature as RiboGreen binding is somewhat temperature dependent. Add 100 μL of RiboGreen Solution to each well. Pop any air bubbles with a needle. Read using fluorescent plate reader (excitation=480, emission=525). • 8. Sample analysis: Use the data generated by the RiboGreen standard curve to calculate the concentration of mRNA. Transfection Efficiency with Luciferase-mRNA (Method A)

HeLa cells = assay: Cell viability assessment with resazurin assay (Method A); type: cell-based
Experimental: as §1
This protocol is used to determine the metabolic activity of cells as a measure for cell viability after exposure to potentially toxic substances. Resazurin is converted in mitochondria by reduction to resorufin, which has a much higher fluorescence at ˜600 nm compared to unconverted resazurin. A lower amount/percentage of conversion is correlated with reduced cellular metabolism and indirectly to cellular death and toxicity. Care must be taken with interpretation of the read-out, as 50% reduction in resazurin conversion may mean 50% reduction of cellular metabolism of 100% alive cells, or 50% of cells dead, and any combination in between.
• 1. Prepare 0.25 mg/ml stock solution resazurin in fresh cell culture medium. Resazurin is auto-reducing over time in solution, especially in medium, and fresh stocks should be prepared every 2-3 days. Stocks should be stored at 4° C. and protected from light. For HeLa cells, DMEM/F12 with 10% FCS is used. • 2. Dilute stock solution 10× in fresh cell culture medium to 0.025 mg/ml->ready for application on cells. For HeLa cells, DMEM/F12 with 10% FCS is used. • 3. Collect 96-well plate and replace cell-culture spent medium with 100 μl per well resazurin solution. Add some resazurin solution for background measurement in wells not containing cells. • 4. Incubate for 50 minutes in incubator at 37° C., 5% CO2, 95% RH. • 5. Transfer resazurin solution to a fresh 96- or 384-well plate. • 6. Measure in plate reader using 540/25 nm (excitation) and 610/40 nm (emission) using standard settings (PTM low/OD-1.0). • 7. Subtract the average background measurement from all samples. Set the average of the negative controls (well receiving OptiMEM only during transfection) to 100% and express all values as percentage of the control activity. Typically, at lower levels of treatment, elevation of metabolic activity is shown, whereas for toxic substances, at toxic concentrations sigmoidal curves can be obtained, with lower activity indicating higher toxicity.

With CCCCCCCCC(CCCCCC)C(=O)OCCCCCCN(CCCCO)CCCCCCOC(=O)C(CCCCCC)CCCCCCCC (centres unmarked) [ALC-0315, reference compound] the “EE (%)” value [1] was 94% and the “Cell Viability % (Average metabolic rate over all doses, Resazurin)” value (shortened to “Cell Viability %”) (HeLa cells) was 97%.

In the case of CCCCC/C=C\C/C=C\CCCCCCCCOC(CCCCCN(CCO)CCO)O[Si](C)(C)OCCCCCCCC/C=C\C/C=C\CCCCC (centres unmarked) [Example 39, (21Z,24Z)-3-(2-hydroxyethyl)-11,11-dimethyl-9-(((9Z,12Z)-octadeca-9,12-dien-1-yl)oxy)-10,12-dioxa-3-aza-11-silatriaconta-21,24-dien-1-ol], the “EE (%)” value [1] is reported as 87% and the “Cell Viability %” value (HeLa cells; human) is reported as 102%.

With CCCCC/C=C\C/C=C\CCCCCCCCO[Si](C)(C)OC(CCCCCCC/C=C\C/C=C\CCCCC)OCCCCCCN(CCO)CCO (centres unmarked) [Example 40, (23Z,26Z)-11-((8Z,11Z)-heptadeca-8,11-dien-1-yl)-3-(2-hydroxyethyl)-13,13-dimethyl-10,12,14-trioxa-3-aza-13-siladotriaconta-23,26-dien-1-ol] the “EE (%)” value [1] was 87% and the “Cell Viability %” value (HeLa cells; human) was 100%.

For CCCCCCCC/C=C\CCCCCCCCOC(CCCCCCCCCCCCCCC)O[Si](C)(C)OCCCCCCN(CCO)CCO (centres unmarked) [Example 41, (Z)-3-(2-hydroxyethyl)-11,11-dimethyl-13-pentadecyl-10,12,14-trioxa-3-aza-11-siladotriacont-23-en-1-ol], the “EE (%)” value [1] was 78% and the “Cell Viability %” value (HeLa cells; human) was 98%.

With CCCCCCCC/C=C\CCCCCCCC(OCCCCCCCCCCCCCCCC)O[Si](C)(C)OCCCCCCN(CCO)CCO (centres unmarked) [Example 42, (Z)-13-(heptadec-8-en-1-yl)-3-(2-hydroxyethyl)-11,11-dimethyl-10,12,14-trioxa-3-aza-11-silatriacontan-1-ol] the “EE (%)” value [1] was 87% and the “Cell Viability %” value (HeLa cells; human) was 98%.

In the case of CCCCC/C=C\C/C=C\CCCCCCCCOC(CCCCCCCCCCCCCCC)O[Si](C)(C)OCCCCCCN(CCO)CCO (centres unmarked) [Example 43, (23Z,26Z)-3-(2-hydroxyethyl)-11,11-dimethyl-13-pentadecyl-10,12,14-trioxa-3-aza-11-siladotriaconta-23,26-dien-1-ol], the “EE (%)” value [1] is reported as 83% and the “Cell Viability %” value (HeLa cells; human) is reported as 98%.

In the case of CCCCC/C=C\C/C=C\CCCCCCCC(OCCCCCCCCCCCCCCCC)O[Si](C)(C)OCCCCCCN(CCO)CCO (centres unmarked) [Example 44, 13-((8Z,11Z)-heptadeca-8,11-dien-1-yl)-3-(2-hydroxyethyl)-11,11-dimethyl-10,12,14-trioxa-3-aza-11-silatriacontan-1-ol], the “EE (%)” value [1] is reported as 82% and the “Cell Viability %” value (HeLa cells; human) is reported as 94%.

In the case of CCCCC/C=C\C/C=C\CCCCCCCC(OCCCCCCCC/C=C\CCCCCCCC)O[Si](C)(C)OCCCCCCN(CCO)CCO (centres unmarked) [Example 45, (Z)-13-((8Z,11Z)-heptadeca-8,11-dien-1-yl)-3-(2-hydroxyethyl)-11,11-dimethyl-10,12,14-trioxa-3-aza-11-siladotriacont-23-en-1-ol], the “EE (%)” value [1] is reported as 82% and the “Cell Viability %” value (HeLa cells; human) is reported as 96%.

With CCCCC/C=C\C/C=C\CCCCCCCCOC(CCCCCCC/C=C\CCCCCCCC)O[Si](C)(C)OCCCCCCN(CCO)CCO (centres unmarked) [Example 46, (23Z,26Z)-13-((Z)-heptadec-8-en-1-yl)-3-(2-hydroxyethyl)-11,11-dimethyl-10,12,14-trioxa-3-aza-11-siladotriaconta-23,26-dien-1-ol] the “EE (%)” value [1] was 81% and the “Cell Viability %” value (HeLa cells; human) was 95%.

For CCCCCCCC/C=C\CCCCCCCCOC(CCCCCCC/C=C\CCCCCCCC)O[Si](C)(C)OCCCCCCN(CCO)CCO (centres unmarked) [Example 47, (Z)-13-((Z)-heptadec-8-en-1-yl)-3-(2-hydroxyethyl)-11,11-dimethyl-10,12,14-trioxa-3-aza-11-siladotriacont-23-en-1-ol], the “EE (%)” value [1] was 88% and the “Cell Viability %” value (HeLa cells; human) was 89%.

With CCCCC/C=C\C/C=C\CCCCCCCCOC(CCCCCCC/C=C\C/C=C\CCCCC)O[Si](C)(C)OCCCCCCN(CCO)CCO (centres unmarked) [Example 48, (23Z,26Z)-13-((8Z,11Z)-heptadeca-8,11-dien-1-yl)-3-(2-hydroxyethyl)-11,11-dimethyl-10,12,14-trioxa-3-aza-11-siladotriaconta-23,26-dien-1-ol] the “EE (%)” value [1] was 85% and the “Cell Viability %” value (HeLa cells; human) was 99%.

With CCCCCCCCCCCCCCCCOC(CCCCCCCCCCCCCCC)O[Si](C)(C)OCCCCCCN(CCO)CCO (centres unmarked) [Example 49, 3-(2-hydroxyethyl)-11,11-dimethyl-13-pentadecyl-10,12,14-trioxa-3-aza-11-silatriacontan-1-ol] the “EE (%)” value [1] was 84% and the “Cell Viability %” value (HeLa cells; human) was 93%.

In the case of CCCCCCCC/C=C\CCCCCCCC(OCC(CCCCCC)CCCCCCCC)O[Si](C)(C)OCCCCCCN(CCO)CCO (centres unmarked) [Example 50, (Z)-13-(heptadec-8-en-1-yl)-16-hexyl-3-(2-hydroxyethyl)-11,11-dimethyl-10,12,14-trioxa-3-aza-11-silatetracosan-1-ol], the “EE (%)” value [1] is reported as 86% and the “Cell Viability %” value (HeLa cells; human) is reported as 98%.

For CCCCCCCC/C=C\CCCCCCCCOC(CC[C@@H](C)C1CCC2C3CCC4C[C@H](OC)CC[C@]4(C)C3CC[C@@]21C)O[Si](C)(C)OCCCCCCN(CCO)CCO (stereo partly drawn) [Example 51, (Z)-3-(2-hydroxyethyl)-13-((3R)-3-((3R,10S,13R)-3-methoxy-10,13-dimethylhexadecahydro-1H-cyclopenta[a]phenanthren-17-yl)butyl)-11,11-dimethyl-10,12,14-trioxa-3-aza-11-siladotriacont-23-en-1-ol], the “EE (%)” value [1] was 89% and the “Cell Viability %” value (HeLa cells; human) was 92%.

For CCCCC/C=C\C/C=C\CCCCCCCCOC(CC[C@@H](C)C1CCC2C3CCC4C[C@H](OC)CC[C@]4(C)C3CC[C@@]21C)O[Si](C)(C)OCCCCCCN(CCO)CCO (stereo partly drawn) [Example 52, (23Z,26Z)-3-(2-hydroxyethyl)-13-((3R)-3-((3R,10S,13R)-3-methoxy-10,13-dimethylhexadecahydro-1H-cyclopenta[a]phenanthren-17-yl)butyl)-11,11-dimethyl-10,12,14-trioxa-3-aza-11-siladotriaconta-23,26-dien-1-ol], the “EE (%)” value [1] was 86% and the “Cell Viability %” value (HeLa cells; human) was 95%.

In the case of CCCCC/C=C\C/C=C\CCCCCCCCOC(CCCCCCC/C=C\C/C=C\CCCCC)O[Si](C)(C)OCCCCCCN1CCOCC1 (centres unmarked) [Example 55, 4-((20Z,23Z)-10-((8Z,11Z)-heptadeca-8,11-dien-1-yl)-8,8-dimethyl-7,9,11-trioxa-8-silanonacosa-20,23-dien-1-yl)morpholine], the “EE (%)” value [1] is reported as 21% and the “Cell Viability %” value (HeLa cells; human) is reported as 91%.
